The source of these data is patent US8546603B2, “Substituted cyclopentanes having prostaglandin activity” (Allergan, Inc., priority 2007, dated 2013).

Read-outs that look alike come from different tables or passages of the source. Bounds are passed on as bounds.

The target in one assay is T1, TP (Homo sapiens, UniProt P21731).
T1 sequence (P21731 1-343): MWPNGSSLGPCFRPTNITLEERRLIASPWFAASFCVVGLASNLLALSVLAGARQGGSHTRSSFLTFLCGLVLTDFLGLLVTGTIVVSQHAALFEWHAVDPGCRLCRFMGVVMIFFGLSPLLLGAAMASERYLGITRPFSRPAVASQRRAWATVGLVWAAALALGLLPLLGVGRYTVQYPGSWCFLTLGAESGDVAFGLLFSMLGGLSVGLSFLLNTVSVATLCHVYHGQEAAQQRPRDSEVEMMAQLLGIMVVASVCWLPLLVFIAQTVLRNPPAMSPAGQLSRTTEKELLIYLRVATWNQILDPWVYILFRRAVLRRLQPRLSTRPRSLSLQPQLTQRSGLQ
The experiment in a line: TP functional assay. The assay is classed as cell-based. From the text:
(§1) U.S. patent application Ser. No. 11/553,143, filed on Oct. 26, 2006, incorporated by reference herein, describes the methods used to obtain the in vitro data in Table 1 below.

The target in assay [1] is T2, EP2 (Homo sapiens, UniProt P43116). The experiment in a line: EP2 cAMP assay. The assay is classed as cell-based.
Excerpt: as §1

Assay [2] deals with T2, EP2. The experiment in a line: EP2 binding assay.
Excerpt: as §1

The target of a further assay is T3, EP3 (Homo sapiens, UniProt P43115).
T3 sequence (P43115 1-390): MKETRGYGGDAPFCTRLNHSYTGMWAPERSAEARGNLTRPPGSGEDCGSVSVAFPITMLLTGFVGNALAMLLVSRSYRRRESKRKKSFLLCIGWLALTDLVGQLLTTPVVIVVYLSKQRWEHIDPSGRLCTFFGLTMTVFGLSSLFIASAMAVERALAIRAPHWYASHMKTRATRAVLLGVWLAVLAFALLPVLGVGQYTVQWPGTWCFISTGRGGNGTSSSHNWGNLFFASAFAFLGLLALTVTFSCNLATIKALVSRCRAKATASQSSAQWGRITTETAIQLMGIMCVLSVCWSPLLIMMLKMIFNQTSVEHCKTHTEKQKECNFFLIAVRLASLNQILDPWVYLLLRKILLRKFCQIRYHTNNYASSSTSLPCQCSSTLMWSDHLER
The assay is described as follows: EP3 functional assay. The format is cell-based.
Excerpt: as §1

Assay [3] has as its target T4, EP4 (Homo sapiens, UniProt P35408). The assay is described as follows: EP4 binding assay.
Excerpt: as §1

The target of assay [4] is T4, EP4. The experiment in a line: EP4 Ca2+ signal assay. The assay is classed as cell-based. The conditions noted are these: for EP4 Ca2+ signal % PGE2: relative to PGE2.
Excerpt: as §1

Assay [5] concerns the target T2, EP2. The experiment in a line: EP2 Ca2+ signal assay. The format is cell-based. The conditions noted are these: for EP2 Ca2+ signal % PGE2: relative to PGE2.
Excerpt: as §1

The target in another assay is T5, EP1 (Homo sapiens, UniProt P34995).
T5 sequence (P34995 1-402): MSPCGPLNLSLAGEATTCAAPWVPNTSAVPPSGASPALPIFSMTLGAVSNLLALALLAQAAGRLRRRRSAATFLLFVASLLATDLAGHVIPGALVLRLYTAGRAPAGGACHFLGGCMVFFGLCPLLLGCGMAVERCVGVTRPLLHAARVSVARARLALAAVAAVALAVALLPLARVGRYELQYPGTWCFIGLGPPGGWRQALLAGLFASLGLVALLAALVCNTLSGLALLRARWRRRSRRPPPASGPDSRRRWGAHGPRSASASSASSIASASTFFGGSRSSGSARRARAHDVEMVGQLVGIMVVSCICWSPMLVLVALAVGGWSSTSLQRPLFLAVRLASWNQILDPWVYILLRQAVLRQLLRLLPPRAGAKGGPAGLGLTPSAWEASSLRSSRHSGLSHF
The experiment in a line: EP1 functional assay. The format is cell-based.
Excerpt: as §1

T4 sequence (P35408 whole entry): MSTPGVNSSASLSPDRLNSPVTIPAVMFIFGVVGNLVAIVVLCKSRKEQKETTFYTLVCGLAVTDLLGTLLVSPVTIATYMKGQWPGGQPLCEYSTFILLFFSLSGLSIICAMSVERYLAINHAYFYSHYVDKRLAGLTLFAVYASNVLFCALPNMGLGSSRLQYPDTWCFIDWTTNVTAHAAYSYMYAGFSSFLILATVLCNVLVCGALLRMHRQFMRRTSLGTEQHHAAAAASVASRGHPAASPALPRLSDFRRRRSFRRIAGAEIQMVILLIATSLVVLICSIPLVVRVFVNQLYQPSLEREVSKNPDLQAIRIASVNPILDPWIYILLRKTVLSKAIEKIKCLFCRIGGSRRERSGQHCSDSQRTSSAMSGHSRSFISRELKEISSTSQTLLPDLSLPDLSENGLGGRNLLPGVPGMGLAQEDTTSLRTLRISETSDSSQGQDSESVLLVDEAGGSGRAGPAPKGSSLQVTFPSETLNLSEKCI
T2 sequence (P43116 whole entry): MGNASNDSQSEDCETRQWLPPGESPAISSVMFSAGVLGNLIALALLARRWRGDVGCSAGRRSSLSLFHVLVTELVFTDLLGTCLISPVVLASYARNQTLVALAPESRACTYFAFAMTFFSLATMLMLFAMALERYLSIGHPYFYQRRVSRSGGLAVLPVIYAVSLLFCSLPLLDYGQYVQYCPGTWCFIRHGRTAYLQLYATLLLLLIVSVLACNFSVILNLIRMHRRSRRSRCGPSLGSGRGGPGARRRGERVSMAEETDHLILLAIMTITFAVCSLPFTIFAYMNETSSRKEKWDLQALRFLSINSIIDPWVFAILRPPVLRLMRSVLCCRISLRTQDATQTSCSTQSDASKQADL

With `C[C@@H](O)CCC[C@H](O)/C=C/[C@H]1[C@H](O)CC(=O)[C@@H]1CCCCCCC(=O)O` [AGN-191287], the EC50 amounted to 5270 nM on TP; 0.9 nM at EP2 [1]; 487 nM at EP2 [2]; 21 nM on EP3; 1670 nM at EP4 [3]; 193 nM on EP4 [4]. Further, the EC50 at EP2 [5] stood at 34 nM; at EP1, 2760 nM. In addition, on EP2 [2], the “EP2 Binding % Inh” value turned out to be 87%. Besides, the “EP4 Binding % Inh” value at EP4 [3] was 75%. Moreover, at EP4 [4], the “EP4 Ca2+ signal % PGE2” value is recorded as 102%. Also, at EP2 [5], the “EP2 Ca2+ signal % PGE2” value came out at 100%.
Molecule `C[C@H](O)CCC[C@H](O)/C=C/[C@@H]1[C@@H](CCCc2ccc(C(=O)O)s2)[C@H](Cl)C[C@H]1O` [AGN-221568] yielded an EC50 on EP2 [1] of 1.4 nM. For the same molecule, at EP2 [2], the EC50 was found to be 381 nM and the “EP2 Binding % Inh” value turned out to be 91%. Besides, on EP4 [3], the concentration giving a half-maximal response (EC50) amounted to 1280 nM and the “EP4 Binding % Inh” value came out at 98%. For the same molecule, on EP4 [4], the EC50 was determined as 35 nM and the “EP4 Ca2+ signal % PGE2” value was 120%. For the same molecule, at EP2 [5], the EC50 came to 20 nM and the “EP2 Ca2+ signal % PGE2” value came to 91%.
For `COC(/C=C/[C@@H]1[C@@H](CCCc2ccc(C(=O)O)s2)[C@H](Cl)C[C@H]1O)CCC[C@@H](C)O` (stereo partly shown) [AGN-219309], the EC50 on EP2 [1] was 25 nM; at EP2 [2], 3310 nM; at EP4 [3] it was greater than 10000 nM; at EP2 [5], 4020 nM. Further, at EP2 [2] (listed as 219309), the “EP2 Binding % Inh” value was found to be 68%. Besides, the “EP4 Binding % Inh” value at EP4 [3] (listed as 219309) turned out to be 9%. Besides, the “EP2 Ca2+ signal % PGE2” value at EP2 [5] (listed as 219309) is 63%.
Regarding `C[C@@H](O)CCC[C@H](O)/C=C/[C@@H]1[C@@H](CCCc2ccc(C(=O)O)s2)[C@H](Cl)C[C@H]1O` [AGN-217510], the EC50 at EP2 [1] came out at 0.06 nM; at EP2 [2], 66 nM; at EP3, 499 nM; at EP4 [3], 2350 nM; on EP4 [4], 145 nM; on EP2 [5] it was 7.4 nM. Moreover, the EC50 at EP1 was determined as 724 nM. The “EP2 Binding % Inh” value on EP2 [2] came out at 99%. Moreover, the “EP4 Binding % Inh” value on EP4 [3] is 64%. In addition, the “EP4 Ca2+ signal % PGE2” value at EP4 [4] is reported as 121%. For the same molecule, the “EP2 Ca2+ signal % PGE2” value on EP2 [5] is 106%.
Consider `C[C@@H](O)CCC[C@H](O)/C=C/[C@H]1[C@H](O)CC(=O)[C@@H]1C/C=C\CCCC(=O)O` [AGN-191286], for which the EC50 at TP turned out to be 3010 nM; on EP2 [1] it was 0.7 nM; at EP2 [2] it was 530 nM; at EP3, 11 nM; on EP4 [3], 1510 nM; on EP4 [4] it was 192 nM. The concentration giving a half-maximal response (EC50) on EP2 [5] stood at 28 nM; on EP1, 308 nM. In addition, at EP2 [2], the “EP2 Binding % Inh” value was 92%. Further, on EP4 [3], the “EP4 Binding % Inh” value is reported as 75%. Besides, the “EP4 Ca2+ signal % PGE2” value at EP4 [4] was found to be 100%. Besides, the “EP2 Ca2+ signal % PGE2” value on EP2 [5] was 100%.
`COC(/C=C/[C@@H]1[C@@H](CCCc2ccc(C(=O)O)s2)[C@H](Cl)C[C@H]1O)CCC[C@@H](C)O` (stereo partly shown) [AGN-219310]: the half-maximal effective concentration (EC50) on EP2 [1] was 3 nM; at EP2 [2], 171 nM; at EP4 [3] it was greater than 10000 nM; at EP2 [5], 281 nM. Moreover, the “EP2 Binding % Inh” value on EP2 [2] (listed as 219310) was 90%. In addition, the “EP4 Binding % Inh” value on EP4 [3] (listed as 219310) was determined as 6%. The “EP2 Ca2+ signal % PGE2” value on EP2 [5] (listed as 219310) was 77%.
